From PubChem BioAssay AID248 (DTP/NCI, 2004)
Several values for one entry are separate records, joined by “and”; a condition that tells them apart may be missing. Equal values may be shown once. Toxic doses and inconclusive results are not listed. No stated cut-off is given here; in the data, active means T/C of 150% or more; inactive means T/C below 125%. Peptide text beside a SMILES is read from it. * marks the point of attachment. Cbz = O=C(OCc1ccccc1)*

Tested on: L1210 leukemia ip in BDF1 mice, survival T/C
Assay: NCI In Vivo Anticancer Drug Screen. Data for tumor model L1210 Leukemia (intraperitoneal) in B6D2F1 (BDF1) mice
Conditions: endpoint: mean survival time, higher = longer survival
Procedure, shortened: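 Antitumor effect is assessed in tumor-bearing animals. Survival in the compound arm is compared with a vehicle-dosed control arm and expressed as their quotient.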

[1] = dose: 100.0 mg/kg/injection, schedule: Q04DX003 (ip), vehicle: saline
[2] = dose: 200.0 mg/kg/injection, schedule: Q04DX003 (ip), vehicle: saline
[3] = dose: 6.25 mg/kg/injection, schedule: Q01DX009 (ip), vehicle: saline with Tween-80
[4] = dose: 12.5 mg/kg/injection, schedule: Q01DX009 (ip), vehicle: saline with Tween-80
[5] = dose: 25.0 mg/kg/injection, schedule: Q01DX009 (ip), vehicle: saline with Tween-80
[6] = dose: 100.0 mg/kg/injection, schedule: Q01DX001 (ip), vehicle: carboxymethylcellulose (CMC)
[7] = dose: 200.0 mg/kg/injection, schedule: Q01DX001 (ip), vehicle: carboxymethylcellulose (CMC)
[8] = dose: 400.0 mg/kg/injection, schedule: Q01DX001 (ip), vehicle: carboxymethylcellulose (CMC)
[9] = dose: 100.0 mg/kg/injection, schedule: Q04DX003 (ip), vehicle: Klucel (hydroxypropylcellulose) (HPC)
[10] = dose: 200.0 mg/kg/injection, schedule: Q04DX003 (ip), vehicle: Klucel (hydroxypropylcellulose) (HPC)
[11] = dose: 400.0 mg/kg/injection, schedule: Q04DX003 (ip), vehicle: Klucel (hydroxypropylcellulose) (HPC)
[12] = dose: 12.5 mg/kg/injection, schedule: Q01DX009 (ip), vehicle: Klucel (hydroxypropylcellulose) (HPC)
[13] = dose: 25.0 mg/kg/injection, schedule: Q04DX003 (ip), vehicle: Klucel (hydroxypropylcellulose) (HPC)
[14] = dose: 50.0 mg/kg/injection, schedule: Q04DX003 (ip), vehicle: Klucel (hydroxypropylcellulose) (HPC)
[15] = dose: 100.0 mg/kg/injection, schedule: Q01DX001 (ip), vehicle: saline
[16] = dose: 200.0 mg/kg/injection, schedule: Q01DX001 (ip), vehicle: saline
[17] = dose: 400.0 mg/kg/injection, schedule: Q01DX001 (ip), vehicle: saline
[18] = dose: 100.0 mg/kg/injection, schedule: Q04DX003 (ip), vehicle: saline with Tween-80
[19] = dose: 200.0 mg/kg/injection, schedule: Q04DX003 (ip), vehicle: saline with Tween-80
[20] = dose: 400.0 mg/kg/injection, schedule: Q04DX003 (ip), vehicle: saline with Tween-80

Measured: T/C

[N-]=[N+]=NC(=O)C1(Br)CCC2c3ccccc3C([N+](=O)[O-])(C1)c1ccccc12 (configuration not stated)
inactive: [1] 101 % of control | [2] 98 % of control | dose: 400.0 mg/kg/injection, schedule: Q04DX003 (ip), vehicle: saline 93 % of control

COC(=O)C1CCCC(=O)C1C(=O)OC (configuration not stated)
inactive: dose: 100.0 mg/kg/injection, schedule: Q04DX003 (ip), vehicle: other 106 % of control | dose: 200.0 mg/kg/injection, schedule: Q04DX003 (ip), vehicle: other 97 % of control | dose: 400.0 mg/kg/injection, schedule: Q04DX003 (ip), vehicle: other 104 % of control

CCc1ccccc1NC(=O)Sc1ccccc1O
inactive: [3] 105 % of control | [4] 105 % of control | [5] 93 % of control and 102 % of control

COCNC(=S)N/N=C/c1ccccn1
inactive: [4] 124 % of control | dose: 50.0 mg/kg/injection, schedule: Q01DX009 (ip), vehicle: saline with Tween-80 124 % of control

CC(=O)N(O)c1ccc(-c2cc3ccccc3[nH]2)cc1
inactive: [6] 101 % of control | [7] 93 % of control | [8] 93 % of control

O=C(Nc1ccc(F)c(Cl)c1)Oc1ccc(OCc2ccccc2)cc1
inactive: [9] 94 % of control | [10] 94 % of control | [11] 95 % of control

COS(C)(=O)=O
inactive: dose: 12.5 mg/kg/injection, schedule: Q01DX010 (ip), vehicle: saline 101 % of control and 91 % of control | dose: 25.0 mg/kg/injection, schedule: Q01DX010 (ip), vehicle: saline 102 % of control and 106 % of control | dose: 25.0 mg/kg/injection, schedule: Q01DX Z (ip), vehicle: carboxymethylcellulose (CMC) 97 % of control | dose: 50.0 mg/kg/injection, schedule: Q01DX010 (ip), vehicle: saline 96 % of control and 106 % of control | dose: 50.0 mg/kg/injection, schedule: Q01DX Z (ip), vehicle: carboxymethylcellulose (CMC) 106 % of control | dose: 100.0 mg/kg/injection, schedule: Q01DX010 (ip), vehicle: saline 95 % of control and 102 % of control | dose: 100.0 mg/kg/injection, schedule: Q01DX Z (ip), vehicle: carboxymethylcellulose (CMC) 95 % of control

O=[N+]([O-])c1cccc(N(CCF)CCF)c1
inactive: dose: 5.0 mg/kg/injection, schedule: Q01DX001 (ip), vehicle: carboxymethylcellulose (CMC) 103 % of control | dose: 10.0 mg/kg/injection, schedule: Q01DX001 (ip), vehicle: carboxymethylcellulose (CMC) 103 % of control | dose: 20.0 mg/kg/injection, schedule: Q01DX001 (ip), vehicle: carboxymethylcellulose (CMC) 112 % of control

ICc1ccc(CI)cc1
inactive: dose: 25.0 mg/kg/injection, schedule: Q01DX009 (ip), vehicle: saline 100 % of control | dose: 100.0 mg/kg/injection, schedule: Q01DX001 (ip), vehicle: other 106 % of control | dose: 100.0 mg/kg/injection, schedule: Q04DX003 (ip), vehicle: acetone 106 % of control | dose: 200.0 mg/kg/injection, schedule: Q01DX001 (ip), vehicle: other 88 % of control | dose: 400.0 mg/kg/injection, schedule: Q01DX001 (ip), vehicle: other 88 % of control

c1ccc(COCCNCCOCc2ccccc2)cc1
inactive: [12] 100 % of control | dose: 12.5 mg/kg/injection, schedule: Q04DX003 (ip), vehicle: Klucel (hydroxypropylcellulose) (HPC) 107 % of control | dose: 25.0 mg/kg/injection, schedule: Q01DX009 (ip), vehicle: Klucel (hydroxypropylcellulose) (HPC) 96 % of control | [13] 94 % of control | dose: 50.0 mg/kg/injection, schedule: Q01DX009 (ip), vehicle: Klucel (hydroxypropylcellulose) (HPC) 95 % of control | [14] 95 % of control

Oc1ccc2c(c1)CNCC2
inactive: [15] 96 % of control | [16] 98 % of control | [17] 102 % of control

N#CC(C#N)=C1Cc2ccccc2C1
inactive: dose: 50.0 mg/kg/injection, schedule: Q04DX003 (ip), vehicle: saline with Tween-80 109 % of control | [18] 109 % of control

CN1CCC2(CC1)C(C#N)C(=O)NC(=O)C2C#N (configuration not stated)
inactive: [6] 92 % of control | [7] 101 % of control | [8] 95 % of control

CC(=O)Oc1c(C)cc([N+](=O)[O-])cc1[N+](=O)[O-]
inactive: [13] 91 % of control | [14] 86 % of control

Cc1cc(C)n(/N=C/c2ccc([N+](=O)[O-])o2)c(=O)c1C#N
inactive: [6] 88 % of control | [7] 91 % of control | [8] 88 % of control

CCNCCCNc1ccnc2cc(Cl)ccc12
inactive: dose: 10.0 mg/kg/injection, schedule: Q01DX001 (ip), vehicle: saline 96 % of control | dose: 20.0 mg/kg/injection, schedule: Q01DX001 (ip), vehicle: saline 98 % of control | dose: 40.0 mg/kg/injection, schedule: Q01DX001 (ip), vehicle: saline 93 % of control

CCOc1ccc(NC2CNC(=O)NC2=O)cc1 (configuration not stated)
inactive: dose: 200.0 mg/kg/injection, schedule: Q01DX Z (ip), vehicle: methylcellulose (MC) 91 % of control

Cc1ccc(S(=O)(=O)OC2C(C)C3C2S(=O)(=O)C3(C)C)cc1 (configuration not stated)
inactive: [18] 102 % of control | [19] 104 % of control | [20] 102 % of control

C[Si](F)(c1cccc2ccccc12)c1cccc2ccccc12
inactive: dose: 100.0 mg/kg/injection, schedule: Q01DX001 (ip), vehicle: saline with Tween-80 97 % of control | dose: 200.0 mg/kg/injection, schedule: Q01DX001 (ip), vehicle: saline with Tween-80 103 % of control | dose: 400.0 mg/kg/injection, schedule: Q01DX001 (ip), vehicle: saline with Tween-80 102 % of control

CCOC(=O)CNC(=O)CNC(=O)CNC(=O)OCc1ccccc1 (Cbz-Gly-Gly-Gly-OEt)
inactive: [15] 93 % of control | [16] 88 % of control | [17] 94 % of control

CC(C)CC(NC(=O)OCc1ccccc1)C(=O)O (configuration not stated)
inactive: dose: 100.0 mg/kg/injection, schedule: Q01DX009 (ip), vehicle: saline with Tween-80 87 % of control | [18] 103 % of control | dose: 200.0 mg/kg/injection, schedule: Q01DX009 (ip), vehicle: saline with Tween-80 97 % of control | [19] 101 % of control | dose: 400.0 mg/kg/injection, schedule: Q01DX009 (ip), vehicle: saline with Tween-80 95 % of control | [20] 97 % of control

CCN(CC)c1ccc(C(=O)OC(C)CNCC(C)CCCC(C)C)cc1 (configuration not stated)
inactive: dose: 75.0 mg/kg/injection, schedule: Q01DX001 (ip), vehicle: carboxymethylcellulose (CMC) 90 % of control | dose: 150.0 mg/kg/injection, schedule: Q01DX001 (ip), vehicle: carboxymethylcellulose (CMC) 94 % of control | dose: 300.0 mg/kg/injection, schedule: Q01DX001 (ip), vehicle: carboxymethylcellulose (CMC) 93 % of control

O=C(O)c1c(Cl)n(-c2ccccc2)c2ccccc12
inactive: dose: 50.0 mg/kg/injection, schedule: Q04DX002 (ip), vehicle: Klucel (hydroxypropylcellulose) (HPC) 101 % of control | dose: 100.0 mg/kg/injection, schedule: Q04DX002 (ip), vehicle: Klucel (hydroxypropylcellulose) (HPC) 104 % of control | dose: 200.0 mg/kg/injection, schedule: Q04DX002 (ip), vehicle: Klucel (hydroxypropylcellulose) (HPC) 93 % of control

c1ccc(-c2n[nH]c(-c3ccccn3)n2)nc1
inactive: dose: 6.25 mg/kg/injection, schedule: Q01DX009 (ip), vehicle: Klucel (hydroxypropylcellulose) (HPC) 97 % of control | [12] 112 % of control

O=C(CBr)c1ccc(I)cc1
inactive: dose: 3.13 mg/kg/injection, schedule: Q01DX009 (ip), vehicle: saline with Tween-80 92 % of control | [3] 95 % of control | [4] 97 % of control | [5] 100 % of control | [6] 91 % of control | [7] 101 % of control

CC(=O)CC(=O)Nc1ccccc1Cl
inactive: [9] 89 % of control | [10] 92 % of control | [11] 96 % of control

CN(C)c1ccc(N=[N+]=[N-])cc1
inactive: dose: 100.0 mg/kg/injection, schedule: Q04DX002 (ip), vehicle: saline with Tween-80 98 % of control | dose: 200.0 mg/kg/injection, schedule: Q04DX002 (ip), vehicle: saline with Tween-80 95 % of control | dose: 400.0 mg/kg/injection, schedule: Q04DX002 (ip), vehicle: saline with Tween-80 98 % of control

CN(C)CCCC#N
inactive: [1] 97 % of control | [2] 95 % of control
